Source: patent US12527977B2, “Combined neuromodulation techniques” (GE Precision Healthcare LLC, priority 2021, dated 2026)

Experiments:
[1] = tested on: Zucker diabetic fatty (ZDF) rat model; assay: Chronic non-fasted blood glucose monitoring in ZDF rats, drug combined with pFUS ultrasound stimulation; type: in vivo
From the text: The following relates to the diabetic animal model used and the method of ultrasound neuromodulation. • Animal Model of Type 2 Diabetes • Zucker diabetic fatty (ZDF) rat model Adult male ZDF rats (Charles River, Kingston, NY USA) were ordered for arrival prior to 8 weeks of age. All animals were maintained on a high caloric rodent chow (Purina 5008), provided, with water, provided ad libitum. […] All procedures performed in accordance with the National Institutes of Health (NIH) Guidelines under protocols approved by the Institutional Animal Care and Use Committee (IACUC) of GE Global Research. ZDF animals were acclimated by daily handling to prevent stress-induced changes in circulating glucose. […] All rats were anesthetized at 1-4% isoflurane at 1 L/min O2. Rats were then placed on a water circulating warming pad, with a rectal thermometer probe to maintain body temperature. The abdominal area was completely shaved and the hair fully removed with Nair to allow for later stimulation of nerve plexus located in either the hepatic or GI systems. […] These locations were then marked with a permanent marker and a ultrasound stimulation probe was placed on the target area. The prototype pFUS device then delivered 3 minutes of stimulation (1.1 MHz, 150 burst cycles, 500 us burst period) Blood glucose levels of the rats were monitored on a daily basis for chronic studies and at 5-minute intervals for acute and OGTT studies. In chronic studies additional blood samples were collected on a weekly basis for the analysis of circulating markers. A final terminal blood sample was collected at the time of euthanization and used for the evaluation of circulating insulin levels. For the prototype pFUS device, stimulus (1.1 MHZ, 200 mV per pulse, 150 burst cycles, 500 us burst period) was applied to each region for 3 minutes per target. For example, pFUS was initially applied to the hepatic portal region for 3 minutes. […] There was an about 5 minute delay period in between stimulation of the first and second, or second and third anatomical target sites. Blood samples obtained from the tail vein were used to assess daily glucose (for chronic studies) and 5-minute glucose intervals (for acute studies) using a Freestyle Freedom Lite (Abbott Diabetes Inc., Alameda, CA, US). The Freestyle Freedom Light meter using a small blood 15 volume (0.3 uL) and as such no additional fluids were needed to recover total volume following blood sampling. Combination of pharmaceutical intervention and pFUS therapy was tested to determine the effects of dual therapies on therapeutic window as well as duration of efficacy. […] This dosing regimen (timing) is identical to that used in humans with dosing to occur prior to both morning and evening mealtimes. […]

[2] = tested on: Zucker diabetic fatty (ZDF) rat model; conditions: previously shown treatment, cited from earlier work
[3] = low dose metformin alone cohort, FIG. 9 data 304

Row | Molecule | remission after ultrasound cessation ([1]; low dose metformin added to dual-site stimulation (7 days ultrasound, then stopped), FIG. 9 data 302) | blood glucose [1, 3] | effectiveness (absolute decrease in blood glucose or length of time spent below 200 mg/dL) versus liraglutide alone [1, 3] | blood glucose reduction duration versus single site plus liraglutide cohort ([1]; low dose metformin plus single site (hepatoportal plexus) stimulus, FIG. 9 data 306) | effect in ZDF animals far along in disease progression ([2]; FGF1 icv, animals with >300 mg/dL average glucose) | remission in the ZDF model ([2]; FGF1 injection into the intracerebroventricular (icv) space)
1 | CN(C)C(=N)N=C(N)N [Metformin] | did not result in extended remission | temporary drop below 200 mg/dL | not as effective as the liraglutide alone cohort | not as effective |  | 
2 | FGF1: FGF1 injected into the intracerebroventricular space; previously reported treatment |  |  |  |  | failed to work | 4 week
